Laboratory results: patent publication EP1101821A1, “NOVEL PROTEIN AND ITS DNA” (Takeda Chemical Industries, Ltd., priority 1998, dated 2000)

Target: recombinant human lung-derived phosphodiesterase V (Homo sapiens, UniProt O76074)
Experiment: Inhibitor screening system: [3H]cGMP SPA phosphodiesterase enzyme assay
Description: A 96-well microplate (OPTI Plate, Packard) received 10 µL of a buffer solution [0.5M Tris-HCl (pH7.5), 83 mM MgCl2, 17 mM EGTA], 10 µL of the recombinant human lung-derived phosphodiesterase V obtained in Example 3 (0.025 mg/ml), 65 µL of an ultrapure water, 5 µL of an inhibitor sample and 10 µL of [^3H]cGMP, and reacted at 30°C for 30 minutes. After completion of the reaction, 50 µL of a SPA beads solution [18 mg/ml Yttrium silicate beads, 18 mM ZnSO4] was added and allowed to stand at room temperature for about 20 minutes, and then subjected to a scintillation counting (Topcount, Packard).

Q: For `Cc1c2c(c(-c3ccc(F)cc3)c3c4c(ccc13)OCO4)C(=O)NC2=O` [Formula 1], which IC50 is on record?
A: 2.29 nM
